# Assay results as given in patent publication US20120244089A1, “USE OF THIAZOLE COMPOUND IN FLAVOR APPLICATIONS” (priority 2009, published 2012).
# “Also recorded” adds a separate entry of the source.
# Assays:
# [1] = Flavor evaluation in water by a trained sensory panel, 9-point hedonic scale; conditions: for Flavor Intensity: 9-point hedonic scale
# Experimental: The flavor properties of 2-ethyl-4-methyl-2,5-dihydro-thiazole (Formula I), 4-ethyl-2-methyl-3-thiazole (Formula II), and 4-methyl-2-propyl-2,5-dihydro-thiazole (Formula III) in water were evaluated by a trained sensory panel using the 9-point hedonic scale.
# [2] = Flavor description in water; conditions: 1 ppb
# [3] = Flavor evaluation in an oatmeal sample; conditions: plain instant oatmeal
# Experimental: The flavor properties of 2-ethyl-4-methyl-2,5-dihydro-thiazole were evaluated in an oatmeal sample. Commercially available plain instant oatmeal was used whose ingredients included whole grain rolled oats, calcium carbonate, salt, guar gum, caramel color, reduced iron, niacinamide, vitamin A, palmitate, pyridoxine, hydrochloride, riboflavin, thiamin mononitrate, and folic acid.
# [4] = Flavor evaluation in a soft drink sample (orange soda); conditions: 5 ppb
# Experimental: The flavor properties of 2-ethyl-4-methyl-2,5-dihydro-thiazole were evaluated in a soft drink sample. An orange soda was used whose ingredients included carbonated water, high fructose corn syrup, citric acid, potassium benzoate, gum acacia, natural flavor, ester gum, yellow 6, brominated vegetable oil, and red 40.
# [5] = Flavor evaluation in a beef broth sample; conditions: 4 ppb
# Experimental: The flavor properties of 2-ethyl-4-methyl-2,5-dihydro-thiazole were evaluated in a beef broth sample. The beef broth sample included beef broth and less than 1% of the following: salt, MSG, hydrolyzed corn protein, hydrolyzed soy protein, hydrolyzed wheat protein, dextrose, onion powder, autolyzed yeast extract, caramel color, partially hydrogenated soybean oil, natural flavor, thiamine hydrochloride, disodium inosinate, and disodium guanylate.
# [6] = Flavor evaluation in a dairy product sample (mixed berry yogurt); conditions: 5 ppb
# Experimental: The flavor properties of 2-ethyl-4-methyl-2,5-dihydro-thiazole were evaluated in a dairy product sample. A mixed berry yogurt sample was used whose ingredients included cultured pasteurized grade A nonfat milk, high fructose corn syrup, modified corn starch, nonfat milk, kosher gelatin, corn starch, tricalcium phosphate, natural flavor, potassium sorbate added to maintain freshness, sucralose (splenda brand,) acesulfame potassium, colored with annatto extract, vitamin A acetate, and vitamin D3.
smiles,measurement,setting,value
"CCC1N=C(C)CS1 (stereo not shown) [Formula I, 2-ethyl-4-methyl-2,5-dihydro-thiazole]",Flavor Profile,[1]; 100 ppb,"Tropical, fruit, peach,; also recorded: slightly catty, and meaty; also recorded: Very strong"
same,Flavor Intensity,[1]; 100 ppb,7.11
same,"Flavor character, comparison with analogs",[1]; summary of the panel results,unexpected strong and long-lasting fruity character; also recorded: superior to all other structurally closely related analogs
same,Flavor notes,[2],"tropical fruit, catty, peach, and berry flavor notes"
same,Flavor effect,[3]; 1 ppb,added faint sulfurous note and synergized with grain note
same,Flavor effect,[3]; 5 ppb,sulfurous and peach notes
same,Flavor effect,[4],provided the feel of a tangerine soda and more natural taste and having cut the acidity
same,Flavor effect,[5],boosted the roast note and imparted additional tropical note
same,Flavor effect,[6],boosted the fruity note and imparted a peach note
"CCC1=NC(C)SC1 (stereo not shown) [Formula II, 4-Ethyl-2-methyl-2,5-dihydro-thiazole]",Flavor Profile,[1]; 1 ppm,Nutty and cabbage
same,Flavor Intensity,[1]; 1 ppm,1
"CCCC1N=C(C)CS1 (stereo not shown) [Formula III, 4-Methyl-2-propyl-2,5-dihydro-thiazole]",Flavor Profile,[1]; 350 ppb,"Sulfury, nutty, and skunk; also recorded: Strong"
same,Flavor Intensity,[1]; 350 ppb,3.33
